PubChem BioAssay (NCI)
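96-well plates; 48 h exposure; 5 concentrations. Endpoints by linear interpolation between flanking doses. Not reached: highest tested concentration assigned. TGI denotes the concentration required for complete inhibition of growth.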

Legend:
Assay in all cases: NCI-60 cell line screen, 48 h
[1] = test system: NCI-H23 lung
[2] = test system: SR leukemia
[3] = test system: MOLT-4 leukemia
[4] = test system: A498 renal
[5] = test system: HCC-2998 colon
[6] = test system: SNB-19 CNS
[7] = test system: SK-OV-3 ovarian
[8] = test system: MALME-3M melanoma
[9] = test system: NCI-H522 lung
[10] = test system: SF-295 CNS
[11] = test system: SK-MEL-28 melanoma
[12] = test system: RPMI-8226 leukemia
[13] = test system: CCRF-CEM leukemia
[14] = test system: LOX IMVI melanoma
[15] = test system: HOP-62 NSCLC
[16] = test system: SN12C renal
[17] = test system: 786-0 renal
[18] = test system: OVCAR-3 ovarian
[19] = test system: UACC-257 melanoma

SMILES	TGI [1] [µM]	TGI [2] [µM]	TGI [3] [µM]	TGI [4] [µM]	TGI [5] [µM]	TGI [6] [µM]	TGI [7] [µM]	TGI [8] [µM]	TGI [9] [µM]	TGI [10] [µM]	TGI [11] [µM]	TGI [12] [µM]	TGI [13] [µM]	TGI [14] [µM]	TGI [15] [µM]	TGI [16] [µM]	TGI [17] [µM]	TGI [18] [µM]	TGI [19] [µM]
CC(C)(CCl)NC(=O)c1cccc(C(=O)NC(C)(C)CCl)n1	> 100	> 100	> 100	> 100	> 100	> 100	> 100	> 100	> 100	> 100	> 100	> 100	> 100	> 100	> 100	> 100	> 100	> 100	–
CCc1cccc(C(C)CC)c1NC(=O)C(=O)Cc1nc2ccccc2o1 (centres undefined)	> 50	–	> 42	> 50	> 50	> 50	> 50	> 50	> 50	> 50	> 50	> 50	> 50	> 50	> 50	> 50	> 50	> 50	> 50
CNS(=O)(=O)NNS(=O)(=O)c1ccc(F)cc1	> 100	> 100	> 100	> 100	–	> 100	–	–	> 100	> 100	–	> 100	> 100	> 100	> 100	–	> 100	> 100	> 100
Cc1cccc(N=Cc2ccc(N(CCC#N)S(=O)(=O)c3ccccc3)cc2C)c1	> 100	–	> 100	> 100	> 100	> 100	> 100	> 100	> 100	> 100	> 100	> 100	> 100	> 100	> 100	> 100	> 100	> 100	> 100
CCc1ccc(Cc2ccc(CC)c(NC(=O)C(=O)C3NC(=S)NC3=O)c2CC)c(CC)c1NC(=O)C(=O)C1NC(=S)NC1=O (centres undefined)	> 100	–	> 100	> 100	> 100	> 100	> 100	> 100	> 100	–	> 100	> 100	> 100	> 100	> 100	–	> 100	> 100	> 100
CC(C)(C)OC(=O)N1CC(C)(C)N2C(=O)C3(CCCO3)C12 (centres undefined)	> 100	–	> 100	> 100	> 100	> 100	> 100	> 100	> 100	> 100	> 100	53.1	> 100	> 100	> 100	> 100	> 100	> 100	> 100
Oc1ccc(C2Oc3cc(O)cc4c3C2c2cc(O)cc3c2C(c2cc(O)cc5c2C4C(c2ccc(O)cc2)O5)C(c2ccc(O)cc2)O3)cc1 (centres undefined)	22.9	> 25	> 25	> 25	> 25	> 25	–	20.7	> 25	–	16.9	24.3	> 25	> 25	> 25	> 25	> 25	> 25	> 25
